# Experimental data: patent US6472541B2, “Protecting groups with increased photosensitivities” (The Regents of the University of California, priority 1998, dated 2002)
# Counter-ions that a name gives are not always drawn.
# Legend:
# rat cortical neurons = assay: One-photon UV uncaging of caged glutamate on brain slices, neuronal responses; assay type: cell-based; conditions: one-photon UV uncaging at 365 nm, 10 mW, average
# Description: The photolabile protecting groups can be uncaged by one-photon or two-photon photolysis. One-photon ultraviolet uncaging experiments were carried out on brain slices. In particular, compound 7 was used to deliver glutamate to rat cortical neurons. One-photon UV uncaging of caged glutamate compound at 365 nm released the glutamate. Neuronal responses were measured after directly stimulating cells as described in Sawatari and Callaway, Nature 380:442-446 (1996). The cells were exposed to compound 7 (Bhc-Glu) or γ-(α-carboxy-2-nitrobenzyl)glutamate, trifluoroacetate salt (compound 1, CNB-glutamate). The one-photon uncaging was carried out as described in FIG. 1 depicts the lower power needed to uncage compound 7 (Bhc-Glu) in the neuron sample in comparison to compound 1 (alpha-carboxy nitrobenzyl-caged glutamate, CNB-Glu). At 10 mW the compound 7-stimulated neurons respond, on average, at amplitudes 80% of their maximum, while compound 1-stimulated neurons are responding at less than 20% of their maximum amplitudes.
# [1] = Electronic absorption and emission properties; assay type: physicochemical; conditions: for λmax Wavelength of peak absorbance: pH 7.2; for ε Molar absorptivity at absorbance peak: pH 7.2, at absorbance peak
# Description: Generally, chemicals and solvents were used directly as received unless otherwise noted. Acetonitrile, chloroform and dichloromethane were dried over 4A molecular sieves. Proton magnetic resonance spectra (^1H NMR) were recorded on a Gemini 200 MHz spectrometer (Varian; Palo Alto, Calif.) and reported in ppm (δ) downfield from tetramethylsilane with residual solvent peaks as the internal standards. Ultraviolet spectra were recorded on a Cary 3E UV-Visible spectrophotometer (Varian, Palo Alto, Calif., USA). Fluorescence spectra were recorded on a Fluorolog spectrofluorometer (SPEX; Edison, N.J., USA). Mass spectra were recorded on a electrospray mass spectrometer (5989B, Hewlett-Packard; Palo Alto, Calif., USA). Thin layer chromatography (TLC) and column chromatography were performed on precoated silica gel 60F-254 plates and 230-400 mesh silica gel 60 respectively (EM Separations; Gibbstown, N.J., USA). All manipulations of compounds sensitive to near ultraviolet light were performed under an orange safety lamp.
# (§1) The electronic absorption and emission properties of the compounds were measured and the stability of the compounds toward hydrolysis in the dark was tested. Stability in the dark can be used to help identify photolabile protecting groups that can be used in a variety of different conditions. Specifically, the quantum efficiencies for one-photon excitation and rates of hydrolysis in the dark were determined.
# [2] = One-photon photolysis quantum efficiency (UV irradiation, HPLC analysis); assay type: physicochemical
# Description: as §1
# […] The duration of each irradiation period was controlled by an electronic shutter. Between each irradiation, a small aliquot (10 μL) of the solution was removed for analysis by reversed phase HPLC with a Betabasic-18 column eluted with a isocratic mixture of 60% acetonitrile and water containing 0.1% trifluoracetic acid at a flow rate of 0.8 mL/min, using absorbance detection at 325 nm. […] […] Quantum efficiencies were calculated as (Iσt90%)^−1, where I is the irradiation intensity in einsteins (cm^−2s^−1), σ is the decadic extinction coefficient in cm^2mol^−1 (10^3 times ε, the usual extinction coefficient in M^−1cm^−1), and t90% is the irradiation time in seconds for 90% conversion to product. […] Dark hydrolysis rates were measured similarly except without illumination.
# [3] = Hydrolysis in the dark (dark stability); assay type: physicochemical; conditions: buffered solution, read-out: t0.5 Half-life for hydrolysis in the dark (converted)
# Description: as §1
# The photolysis quantum efficiencies for one-photon excitation were determined by irradiating a buffered solution of the substrate with 365 nm ultraviolet light from a B-100 mercury lamp (Spectronics Corp., Westbury, N.Y.). The duration of each irradiation period was controlled by an electronic shutter. Between each irradiation, a small aliquot (10 μL) of the solution was removed for analysis by reversed phase HPLC with a Betabasic-18 column eluted with a isocratic mixture of 60% acetonitrile and water containing 0.1% trifluoracetic acid at a flow rate of 0.8 mL/min, using absorbance detection at 325 nm. Optical densities at 365 nm were maintained near 0.1 so that inner-filtering of the irradiation could be neglected. […] Quantum efficiencies were calculated as (Iσt90%)^−1, where I is the irradiation intensity in einsteins (cm^−2s^−1), σ is the decadic extinction coefficient in cm^2mol^−1 (10^3 times ε, the usual extinction coefficient in M^−1cm^−1), and t90% is the irradiation time in seconds for 90% conversion to product. The total UV intensity, I, was measured by chemical actinometry with 6 mM potassium ferrioxalate in the same setup. Dark hydrolysis rates were measured similarly except without illumination.
# [4] = In vitro measurements of two-photon uncaging and fluorescence cross-sections; assay type: physicochemical; conditions: pH 7.2
# Description: Measurements of cross-sections for two-photon uncaging were carried out in microcuvettes with cylindrical cavities having a 1 cm path length and 20 μL total volume (Type 26F, Starna). Femtosecond infrared pulses from a mode-locked titanium-sapphire laser (Spectra-Physics TSUNAMI, pumped by a Spectra-Physics MILLENNIUM) were aimed along the axis of the sample chamber and focused in its center with a 25 mm focal length lens (06LXP003/076, Melles Griot, Irvine, Calif.) optimized for infrared lasers. The pulse parameters were estimated by replacing the caged compound by a solution of fluorescein, a reference compound of known fluorescence quantum yield Qf2 (0.9) and two-photon absorbance cross-section δaF (30 and 38 GM at 740 and 800 nm respectively). The time-averaged fluorescence <F(t)>collected by the detector is given by equation (1)
# <F(t)>=0.5φQf2δaFCF<I0^2(t)>∫S^2(r)dV (1)
# where φ is the collection efficiency of the detector, CF is the concentration of fluorescein, <I0^2(t)> is the mean squared light intensity, S(r) is a unitless spatial distribution function, and the integral is over the volume of the microcuvette. The fluorescence emitted at right angles to the laser beam was measured through a 535 nm bandpass filter in front of a silicon photodiode radiometer (IL1700, International Light). The collection efficiency φ was estimated as Ay/(4πR^2n^2), where A is the area of the detector (0.38 cm^2), y is the fraction of the integrated emission spectrum transmitted by the interference filter (0.377), measured separately in a spectrofluorometer, R is the distance from the center of the cuvette to the detector (3.83 cm), and n is the refractive index of water (1.333). For photolysis of a caged compound or substrate, the number NP of molecules of product formed per unit time is (eq. 2):
# NP=0.5Qu2δaSCS<I0^2(t)>∫S^2(r)dV (2)
# where Qu2, δaS, and CS are the quantum efficiency for two-photon uncaging, absorbance cross-section, and concentration of the substrate, respectively. NP was measured by HPLC sampling of the microcuvette as for the one-photon photolysis. The uncaging action cross-section δu2 (≡Qu2δaS) can therefore be estimated by (eq. 3): [formula]
# Similarly, when the substrate is also fluorescent, its two-photon fluorescence action cross-section δf2S (≡Qf2SδaS) can be estimated as (eq. 4): [formula]
# Here the subscripts S and F distinguish values for the substrate and for the fluorescein reference. If one assumes that one- and two-photon quantum efficiencies are the same, then δu2/Qu1 and δf2S/Qf1S should both equal δaS. In fact, the former values are typically about twice the latter. All of them are directly proportional to the assumed value of Qf2 for fluorescein.
# [5] = Mechanism of photolysis (triplet state lifetime); assay type: physicochemical
# Text: The halogenated coumarin derivatives have good dark stability, and high one-photon and two-photon uncaging efficiencies. Without being bound to any particular theory, halogenation of the coumarin may have increased the two-photon cross-sections by lowering the pKa of the chromophore below physiological pH and promoting formation of the more strongly absorbing anion. Also, the heavy atoms may promote intersystem crossing to the triplet, which is believed to be the photochemically reactive state. […] The mechanism of photolysis of compound 7 and compound 23 indicate that the solvolysis occurs via the triplet state with a lifetime of about 1 μs. […] Although compound 6 had the highest cross-section, its photolysis was complicated by multiple secondary photoproducts. The monobromo compound (compound 5) was much more tractable and easily formed caged compounds.
# [6] = 515 nm rather than 365 nm (footnote g)
ε Molar Absorptivity at 365 nm [1],Qu1 Quantum efficiency for uncaging with one-photon excitation at 365 nm [2],εQu1 One-photon action cross section (product of molar absorptivity and photolysis quantum yield) at 365 nm [2],ε Molar Absorptivity at 400 nm [1],λmax Wavelength of peak absorbance [1],ε Molar absorptivity at absorbance peak [1],half-life [3],δf (740 nm) fluorescence action cross-section for two-photon excitation [4],δu (740 nm) uncaging action cross-section for two-photon excitation [4],δf (800 nm) fluorescence action cross-section for two-photon excitation [4],δu (800 nm) uncaging action cross-section for two-photon excitation [4],Qf1 Quantum efficiency for fluorescence with one-photon excitation [1],λem [1],"ε Molar Absorptivity (measured at 515 nm) [1, 6]","Qu1 Quantum efficiency for uncaging with one-photon excitation (measured at 515 nm) [2, 6]","εQu1 One-photon action cross section (ε and Qu1 measured at 515 nm) [2, 6]",SMILES,"Neuron response amplitude, percent of maximum amplitude (rat cortical neurons)",Lifetime of triplet state through which solvolysis occurs [5]
"15,900 M^−1cm^−1",0.019,302 M⁻¹ cm⁻¹,"5,000 M^−1cm^−1",370 nm,"16,000 M^−1cm^−1",228 h,9.68 ± 10^−50 cm^4s/photon,1.07 ± 10^−50 cm^4s/photon,3.22 ± 10^−50 cm^4s/photon,0.34 ± 10^−50 cm^4s/photon,0.37,474 nm,,,,"CC(=O)OCc1cc(=O)oc2cc(O)c(Cl)cc12 [Compound 4, 6-Chloro-7-hydroxycoumarin-4-ylmethyl acetate]",,
"14,800 M^−1cm^−1",0.037,548 M⁻¹ cm⁻¹,"5,000 M^−1cm^−1",370 nm,"15,000 M^−1cm^−1",183 h,4.24 ± 10^−50 cm^4s/photon,1.99 ± 10^−50 cm^4s/photon,1.41 ± 10^−50 cm^4s/photon,0.42 ± 10^−50 cm^4s/photon,0.22,474 nm,,,,"CC(=O)OCc1cc(=O)oc2cc(O)c(Br)cc12 [Compound 5, 6-Bromo-7-hydroxycoumarin-4-ylmethyl acetate]",,
"9,700 M^−1cm^−1",0.065,630 M⁻¹ cm⁻¹,"15,700 M^−1cm^−1",397 nm,"15,900 M^−1cm^−1",218 h,,0.96 ± 10^−50 cm^4s/photon,,3.1 ± 10^−50 cm^4s/photon,0.16,498 nm,,,,"CC(=O)OCc1c(Br)c(=O)oc2c(Br)c(O)c(Br)cc12 [Compound 6, 3,6,8-Tribromo-7-hydroxycoumarin-4-ylmethyl acetate]",,
"19,200 M^−1cm^−1",0.019,364 M⁻¹ cm⁻¹,"7,560 M^−1cm^−1",369 nm,"19,550 M^−1cm^−1",,,0.89 ± 10^−50 cm^4s/photon,,0.42 ± 10^−50 cm^4s/photon,,,,,,"N[C@@H](CCC(=O)OCc1cc(=O)oc2cc(O)c(Br)cc12)C(=O)O [Compound 8, γ-(6-Bromo-7-hydroxycoumarin-4-yl)methyl glutamate]",,
,,,,,,,,1.6 10^−50 cm^4s/photon,68 10^−50 cm^4s/photon,2.6 10^−50 cm^4s/photon,,538 nm,"41,200 M^−1cm^−1",0.038,"1,565 M^−1cm^−1",O=c1ccc2c(CCl)c3ccc(O)cc3oc-2c1 [Compound 9],,
,,,,,,,,,,,,,,,,"CCOP(=O)(OCC)OCc1cc(=O)oc2cc(O)c(Br)cc12 [Compound 23, 6-Bromo-7-hydroxycoumarin-4-ylmethyl diethylphosphate]",,about 1 μs

SMILES,ε Molar Absorptivity at 365 nm [1],Qu1 Quantum efficiency for uncaging with one-photon excitation at 365 nm [2],εQu1 One-photon action cross section (product of molar absorptivity and photolysis quantum yield) at 365 nm [2],ε Molar Absorptivity at 400 nm [1],λmax Wavelength of peak absorbance [1],ε Molar absorptivity at absorbance peak [1],half-life [3],δf (740 nm) fluorescence action cross-section for two-photon excitation [4],δu (740 nm) uncaging action cross-section for two-photon excitation [4],δf (800 nm) fluorescence action cross-section for two-photon excitation [4],δu (800 nm) uncaging action cross-section for two-photon excitation [4],Qf1 Quantum efficiency for fluorescence with one-photon excitation [1],λem [1],"ε Molar Absorptivity (measured at 515 nm) [1, 6]","Qu1 Quantum efficiency for uncaging with one-photon excitation (measured at 515 nm) [2, 6]","εQu1 One-photon action cross section (ε and Qu1 measured at 515 nm) [2, 6]","Neuron response amplitude, percent of maximum amplitude (rat cortical neurons)",Lifetime of triplet state through which solvolysis occurs [5]
"NC(CCC(=O)OC(C(=O)O)c1ccccc1[N+](=O)[O-])C(=O)O (stereo not drawn) [Compound 1, γ-(α-carboxy-2-nitrobenzyl)glutamate, trifluoroacetate salt, reference compound]",180 M⁻¹ cm⁻¹,0.14,25 M⁻¹ cm⁻¹,,,,,,,,,,,,,,less than 20%,
"COc1cc(COC(=O)CCC(N)C(=O)O)c([N+](=O)[O-])cc1OC (stereo not drawn) [Compound 2, reference compound]","7,300 M^−1cm^−1",0.004,29 M⁻¹ cm⁻¹,"1,570 M^−1cm^−1",345 nm,"8,860 M^−1cm^−1",,,,,,,,,,,,
